Laboratory results from patent publication US20250177408A1, “INHIBITOR OF INTERACTION BETWEEN YAP/TAZ AND TEAD, PREPARATION THEREOF, PHARMACEUTICAL COMPOSITION THEREOF AND USE THEREOF” (ETERN BIOPHARMA (SHANGHAI) CO., LTD., priority 2022, published 2025).

biological target: YAP-TEAD protein interaction (His-TEAD1 (209-426) protein, Bio-YAP peptide (60-100)) (Homo sapiens, UniProt P28347); test: YAP-TEAD protein interaction HTRF experiment; type: binding; settings: His-TEAD1 (209-426) 10 nM, Bio-YAP peptide 50 nM, read-out: Activity of each compound in blocking YAP-TEAD protein interaction (grades of IC50 values)
Sequence (P28347 209-426): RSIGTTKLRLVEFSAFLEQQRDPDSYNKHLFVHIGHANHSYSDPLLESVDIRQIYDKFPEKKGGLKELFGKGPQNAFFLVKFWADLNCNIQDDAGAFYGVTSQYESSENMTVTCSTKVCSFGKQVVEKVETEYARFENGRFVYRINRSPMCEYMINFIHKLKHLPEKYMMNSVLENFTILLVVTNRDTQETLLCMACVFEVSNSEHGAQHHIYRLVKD
Method: In this example, the YAP-TEAD protein interaction HTRF experiment was used to detect the activity of each compound in blocking the YAP-TEAD protein interaction.
The experiment was carried out according to the following operation steps:
Step 1: His-TEAD1 (209-426) protein was added to a 384-well detection white plate to a final concentration of 10 nM, and buffer was used as the background signal well. The compounds to be tested were subjected to 3-fold dilution and a total of 10 concentration gradients were set up, and each diluted solution was mixed well. A certain volume of the compound to be tested was added to each well separately, 2 replicates were set for each concentration, and the final concentration of DMSO was controlled at 1%. Incubation was carried out at room temperature for 20 minutes. The amino acid sequence of TAED1 (209-426) used in this step is shown in SEQ ID NO: 1:
After mixing evenly, the mixture was incubated at room temperature for 10 minutes.
Step 3: Anti-His-Eu cryptate gold and streptavidin-XL665 were diluted according to the instructions and mixed in equal proportions. A certain volume of the detection reagent was added to the well, and the mixture was incubated at room temperature for 1 hour.
Step 4: The signal was detected using an Envision (Perkin Elmer) microplate reader at an excitation wavelength of 320 nm and emission wavelengths of 665 nm and 620 nm.
Step 5: The signal was calculated based on the ratio of Em665/Em620*10000.
The inhibition percentage (%) was calculated using the following formula: […]
The half-maximal inhibitory concentration (IC50) values were calculated using GraphPad Prism software.

| SMILES | IC50 [µM] |
| --- | --- |
| Cc1nnc2n1-c1cc(C(N)=O)c(-c3c(Cl)c(F)cc4c3C[C@](c3ccccc3)([C@@H]3CCCN3)O4)c(F)c1OC2 (atropisomer, axis not shown) [Compound 43, (S)-7-((S)-5-Chloro-6-fluoro-2-phenyl-2-((S)-pyrrolidin-2-yl)-2,3-dihydrobenzofuran-4-yl)-6-fluoro-1-methyl-4H-benzo[b][1,2,4]triazolo[4,3-d][1,4]oxazine-8-carboxamide] | 0.05 to 0.5 |
| NC(=O)c1cc2c(c(F)c1-c1c(Cl)c(F)cc3c1C[C@](c1ccccc1)([C@@H]1CCCN1)O3)Oc1ncnc(N)c1O2 (atropisomer, axis not shown) [Compound 113, (S)-4-Amino-8-((S)-5-chloro-6-fluoro-2-phenyl-2-((S)-pyrrolidin-2-yl)-2,3-dihydrobenzofuran-4-yl)-9-fluorobenzo[5,6][1,4]dioxo [2,3-d]pyrimidine-7-carboxamide] | 0.05 to 0.5 |
| NC(=O)c1cn2ccnc2c(F)c1-c1c(Cl)c(F)cc2c1C[C@](c1ccccc1)([C@@H]1CCCN1)O2 (atropisomer, axis not shown) [Compound I-11, (S)-7-((S)-5-Chloro-6-fluoro-2-phenyl-2-((S)-pyrrolidin-2-yl)-2,3-dihydrobenzofuran-4-yl)-8-fluoroimidazo[1,2-a]pyridine-6-carboxamide] | < 0.05 |
| NC(=O)c1cc2c(c(F)c1-c1c(Cl)c(F)cc3c1C[C@](c1ccccc1)([C@@H]1CCCN1)O3)OCC2 (atropisomer, axis not shown) [Compound I-31, (2S,4S)-5-Chloro-6,7′-difluoro-2-phenyl-2-((S)-pyrrolidin-2-yl)-2,2′,3,3′-tetrahydrofuran-[4,6′-bibenzofuran]-5′-carboxamide] | < 0.05 |
| NC(=O)c1cc2c(c(F)c1-c1c(Cl)c(F)cc3c1C[C@](c1ccccc1)([C@@H]1CCCN1)O3)[C@@H](O)CC2 (atropisomer, axis not shown) [Compound I-57, (1S,6S)-6-((S)-5-Chloro-6-fluoro-2-phenyl-2-((S)-pyrrolidin-2-yl)-2,3-dihydrobenzofuran-4-yl)-7-fluoro-1-hydroxy-2,3-dihydro-1H-indene-5-carboxamide] | < 0.05 |
| NC(=O)c1cc2c(c(F)c1-c1c(Cl)c(F)cc3c1C[C@](c1ccccc1)([C@@H]1CCCN1)O3)[C@H](O)CC2 (atropisomer, axis not shown) [Compound I-58, (1R,6S)-6-((S)-5-Chloro-6-fluoro-2-phenyl-2-((S)-pyrrolidin-2-yl)-2,3-dihydrobenzofuran-4-yl)-7-fluoro-1-hydroxy-2,3-dihydro-1H-indene-5-carboxamide] | 0.05 to 0.5 |
| CNC(=O)c1cc2c(c(F)c1-c1c(Cl)c(F)cc3c1C[C@](c1ccccc1)([C@@H]1CCCN1)O3)[C@H](O)CC2 (atropisomer, axis not shown) [Compound I-60, (1R,6S)-6-((S)-5-Chloro-6-fluoro-2-phenyl-2-((S)-pyrrolidin-2-yl)-2,3-dihydrobenzofuran-4-yl)-7-fluoro-1-hydroxy-N-methyl-2,3-dihydro-1H-indene-5-carboxamide] | 0.05 to 0.5 |
| NC(=O)c1cc2c(c(F)c1-c1c(Cl)c(F)cc3c1C[C@](c1ccccc1)([C@@H]1CCCN1)O3)OCCO2 [Compound 1′, 7-((2S,4R)-5-Chloro-6-fluoro-2-phenyl-2-((S)-pyrrolidin-2-yl)-2,3-dihydrobenzofuran-4-yl)-8-fluoro-2,3-dihydrobenzo[b][1,4]dioxine-6-carboxamide] | 0.05 to 0.5 |
| NC(=O)c1cc2c(c(F)c1-c1c(Cl)c(F)cc3c1C[C@](c1ccccc1)([C@@H]1CCCN1)O3)OC(CO)CO2 (stereo partly drawn) [Compound I-53, (S)-7-((S)-5-Chloro-6-fluoro-2-phenyl-2-((S)-pyrrolidin-2-yl)-2,3-dihydrobenzofuran-4-yl)-8-fluoro-2-(hydroxymethyl)-2,4-dihydrobenzo[b][1,4] dioxoine-6-carboxamide] | < 0.05 |
| N#CCC1Cc2cc(C(N)=O)c(-c3c(Cl)c(F)cc4c3C[C@](c3ccccc3)([C@@H]3CCCN3)O4)c(F)c2O1 (stereo partly drawn) [Compound I-55, (2S)-5-Chloro-2′-(cyanomethyl)-6,7′-difluoro-2-phenyl-2-((S)-pyrrolidin-2-yl)-2,2′,3,3′-tetrahydro-[4,6′-bibenzofuran]-5′-carboxamide] | < 0.05 |
| CNC(=O)c1cc2c(c(F)c1-c1c(Cl)c(F)cc3c1C[C@](c1ccccc1)([C@@H]1CCCN1)O3)OC(CO)CO2 (stereo partly drawn) [Compound I-56, (S)-7-((S)-5-Chloro-6-fluoro-2-phenyl-2-((S)-pyrrolidin-2-yl)-2,3-dihydrobenzofuran-4-yl)-8-fluoro-2-(hydroxymethyl)-N-methyl-2,3-dihydrobenzo[b][1,4] dioxoine-6-carboxamide] | < 0.05 |

More lines, now with the values ahead:

| IC50 [µM] | SMILES |
| --- | --- |
| 0.05 to 0.5 | Cn1cc2c(n1)COc1c-2cc(C(N)=O)c(-c2c(Cl)c(F)cc3c2C[C@](c2ccccc2)([C@@H]2CCCN2)O3)c1F (atropisomer, axis not shown) [Compound 3′, (R)-7-((S)-5-Chloro-6-fluoro-2-phenyl-2-((S)-pyrrolidin-2-yl)-2,3-dihydrobenzofuran-4-yl)-6-fluoro-2-methyl-2,4-dihydrochromeno[3,4-c]pyrazole-8-carboxamide] |
| > 5 | [2H]c1c([2H])c([2H])c([C@]2([C@@H]3CCCN3)Cc3c(cc(F)c(Cl)c3-c3c(C(N)=O)cc4c(c3F)OCc3nn(C)cc3-4)O2)c([2H])c1[2H] (atropisomer, axis not shown) [Compound 117, (S)-7-((S)-5-Chloro-6-fluoro-2-(phenyl-d5)-2-((S)-pyrrolidin-2-yl)-2,3-dihydrobenzofuran-4-yl)-6-fluoro-2-methyl-2,4-dihydrochromeno[3,4-c]pyrazole-8-carboxamide] |
| < 0.05 | NC(=O)c1cc2c(c(F)c1-c1c(Cl)c(F)cc3c1C[C@](c1ccccc1)([C@@H]1CCCN1)O3)Oc1c(cnn(C3COC3)c1=O)O2 (atropisomer, axis not shown) [Compound 145, (S)-8-((S)-5-Chloro-6-fluoro-2-phenyl-2-((S)-pyrrolidin-2-yl)-2,3-dihydrobenzofuran-4-)-9-fluoro-2-(oxetan-3-yl)-1-oxo-1,2-dihydrobenzo[5,6][1,4]dioxo [2,3-d]pyridazine-7-carboxamide] |
| < 0.05 | CNC[C@@]1(c2ccccc2)Cc2c(cc(F)c(Cl)c2-c2c(C(N)=O)cc3c(ccn3C)c2F)O1 (atropisomer, axis not shown) [Compound I-2, (S)-5-((S)-5-Chloro-6-fluoro-2-((methylamino)methyl)-2-phenyl-2,3-dihydrobenzofuran-4-yl)-4-fluoro-1-methyl-1H-indole-6-carboxamide] |
| < 0.05 | CNC(=O)c1cc2c(c(F)c1-c1c(Cl)c(F)cc3c1C[C@](c1ccccc1)([C@@H]1CCCN1)O3)OCCN2 (atropisomer, axis not shown) [Compound I-26, (S)-7-((2S)-5-Chloro-6-fluoro-2-phenyl-2-((S)-pyrrolidin-2-yl)-2,3-dihydrobenzofuran-4-yl)-8-fluoro-N-methyl-3,4-dihydro-2H-benzo[b][1,4]oxazine-6-carboxamide] |
| < 0.05 | NC(=O)c1cc2c(c(F)c1-c1c(Cl)c(F)cc3c1C[C@](c1ccccc1)([C@@H]1CCCN1)O3)OCCOC2 (atropisomer, axis not shown) [Compound I-54, (S)-8-((S)-5-Chloro-6-fluoro-2-phenyl-2-((S)-pyrrolidin-2-yl)-2,3-dihydrobenzofuran-4-yl)-9-fluoro-2,3-trihydro-5H-benzo[e][1,4]dioxa-7-carboxamide] |
| < 0.05 | CNC(=O)c1cc2c(c(F)c1-c1c(Cl)c(F)cc3c1C[C@](c1ccccc1)([C@@H]1CCCN1)O3)[C@@H](O)CC2 (atropisomer, axis not shown) [Compound I-59, (1S,6S)-6-((S)-5-Chloro-6-fluoro-2-phenyl-2-((S)-pyrrolidin-2-yl)-2,3-dihydrobenzofuran-4-yl)-7-fluoro-1-hydroxy-N-methyl-2,3-dihydro-1H-indene-5-carboxamide] |
| 0.5 to 5 | Cn1cc2c(n1)COc1c-2cc(C(N)=O)c(-c2c(Cl)c(F)cc3c2C[C@](c2ccccc2)([C@@H]2CC(O)CN2)O3)c1F (stereo partly drawn) [Compound 55, (7S)-7-((2S)-5-Chloro-6-fluoro-2-((2S)-4-hydroxypyrrolidin-2-yl)-2-phenyl-2,3-dihydrobenzofuran-4-yl)-6-fluoro-2-methyl-2,4-dihydrochromeno[3,4-c]pyrazole-8-carboxamide] |
| < 0.05 | NC(=O)c1cc2c(c(F)c1-c1c(Cl)c(F)cc3c1C[C@](c1ccccc1)([C@@H]1CCCN1)O3)OC(CO)C2 (stereo partly drawn) [Compound I-52, (2S,6′S)-5-Chloro-6,7′-difluoro-2′-(hydroxymethyl)-2-phenyl-2-((S)-pyrrolidin-2-yl)-2,2′,3,3′-tetrahydro-[4,6′-bibenzofuran]-5′-carboxamide] |
